This note sets out measurements from ChEMBL document CHEMBL5046295 (J Med Chem, 2022).

Calls of active or inactive are those of the source. No cut-off for these calls is given here.

In test [1] the test system is Mus musculus. Nature of the test: Antinociceptive activity against Swiss Webster mouse model assessed as increase in tail withdrawal latency from warm water by measuring maximum possible effect at 10 mg/kg, sc measured after 20 min by warm water tail immersion assay. Format: functional, organism-based.
Test [2] has as its system Mus musculus. The test is described as follows: Antinociceptive activity against Swiss Webster mouse model assessed as increase in tail withdrawal latency from warm water at 10 mg/kg, sc incubated for 5 mins followed by morphine addition and measured after 20 mins by warm water tail immersion assay. Format: functional, organism-based.
Test [3] has as its target Kappa-type opioid receptor (Mus musculus, UniProt P33534).
Description: Displacement of [3H]-diprenorphine from mouse kappa opioid receptor expressed in CHO cell membranes assessed as inhibition constant incubated for 1.5 hrs by competitive binding assay
Test [4] concerns the target T1, Mu-type opioid receptor (Mus musculus, UniProt P42866).
Test [5] concerns the target T1, Mu-type opioid receptor. Nature of the test: Partial agonist activity at mouse mu opioid receptor expressed in CHO cell membranes incubated for 1.5 hrs by [35S]GTPgammaS binding based liquid scintillation counting method. A general note: GTPγS is a poorly hydrolysed GTP analogue; its binding reports G protein activation.
Test [6] has as its target Delta-type opioid receptor (Homo sapiens, UniProt P41143).
Description: Displacement of [3H]-diprenorphine from human delta opioid receptor expressed in CHO cell membranes assessed as inhibition constant incubated for 1.5 hrs by competitive binding assay

T1 sequence (P42866 whole entry): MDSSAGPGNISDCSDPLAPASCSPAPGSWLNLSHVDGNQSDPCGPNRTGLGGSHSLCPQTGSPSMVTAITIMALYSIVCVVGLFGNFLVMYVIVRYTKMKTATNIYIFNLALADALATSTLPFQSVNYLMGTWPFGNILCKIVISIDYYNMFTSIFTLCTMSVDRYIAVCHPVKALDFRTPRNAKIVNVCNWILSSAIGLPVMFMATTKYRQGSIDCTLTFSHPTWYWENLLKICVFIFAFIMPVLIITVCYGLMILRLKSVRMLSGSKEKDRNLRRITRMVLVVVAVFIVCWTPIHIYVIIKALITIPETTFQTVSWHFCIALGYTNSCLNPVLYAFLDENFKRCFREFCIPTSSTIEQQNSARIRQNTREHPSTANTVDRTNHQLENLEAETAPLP
Delta-type opioid receptor, sequence (P41143 whole entry): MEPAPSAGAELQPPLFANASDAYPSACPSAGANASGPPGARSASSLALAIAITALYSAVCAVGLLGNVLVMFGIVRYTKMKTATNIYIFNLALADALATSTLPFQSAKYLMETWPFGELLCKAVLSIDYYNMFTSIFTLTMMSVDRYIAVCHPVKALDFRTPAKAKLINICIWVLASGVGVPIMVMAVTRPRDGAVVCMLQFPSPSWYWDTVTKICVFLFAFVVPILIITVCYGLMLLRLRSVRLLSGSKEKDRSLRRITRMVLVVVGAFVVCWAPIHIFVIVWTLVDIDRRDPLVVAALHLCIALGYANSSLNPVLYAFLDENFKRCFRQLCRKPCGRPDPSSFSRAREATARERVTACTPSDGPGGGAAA
Kappa-type opioid receptor, sequence (P33534 whole entry): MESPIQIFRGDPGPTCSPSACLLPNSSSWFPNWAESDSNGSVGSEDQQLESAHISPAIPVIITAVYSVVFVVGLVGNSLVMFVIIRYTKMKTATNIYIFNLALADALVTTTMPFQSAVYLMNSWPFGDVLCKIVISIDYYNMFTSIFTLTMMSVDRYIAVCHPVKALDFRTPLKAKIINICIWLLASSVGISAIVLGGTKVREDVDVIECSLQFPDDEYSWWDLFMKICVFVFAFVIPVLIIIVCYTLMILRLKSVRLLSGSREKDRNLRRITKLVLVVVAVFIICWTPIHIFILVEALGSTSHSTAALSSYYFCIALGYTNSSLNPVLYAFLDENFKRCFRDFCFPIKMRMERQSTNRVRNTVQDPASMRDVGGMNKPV

Consider `O=C(N[C@@H]1CC[C@@]2(O)[C@H]3Cc4ccc(O)c5c4[C@@]2(CCN3CC2CC2)[C@H]1O5)c1cccs1`, for which the result in the test on Mus musculus [1] was inactive. Also, the outcome with Mus musculus [2] was Active.

As for `O=C(N[C@H]1CC[C@@]2(O)[C@H]3Cc4ccc(O)c5c4[C@@]2(CCN3CC2CC2)[C@H]1O5)c1ccoc1`, the inhibitory constant (Ki) in test [3] was determined as 2.14 nM; on Mu-type opioid receptor [4], 0.5 nM; in test [6], 28.6 nM. Further, in the test with Mus musculus [1], the result was Active. The same compound came in with an EC50 at Mu-type opioid receptor [5] of 7.63 nM.

`O=C(Cc1ccc[nH]1)N[C@H]1CC[C@@]2(O)[C@H]3Cc4ccc(O)c5c4[C@@]2(CCN3CC2CC2)[C@H]1O5`: the Ki in test [3] came out at 2.88 nM; at Mu-type opioid receptor [4] it was 0.46 nM; in test [6], 3.85 nM. The outcome in the test on Mus musculus [1] and in the test on Mus musculus [2] was inactive. At Mu-type opioid receptor [5], this compound gave a half-maximal effective concentration (EC50) of 4.18 nM.

Turning to `O=C(Cc1ccoc1)N[C@H]1CC[C@@]2(O)[C@H]3Cc4ccc(O)c5c4[C@@]2(CCN3CC2CC2)[C@H]1O5`, the Ki in test [3] is 6.45 nM; at Mu-type opioid receptor [4], 0.42 nM; in test [6], 3.74 nM. The result in the test with Mus musculus [1] and with Mus musculus [2] was inactive. The same compound returned a 50% effective concentration (EC50) at Mu-type opioid receptor [5] of 8.32 nM.

Take `O=C(N[C@@H]1CC[C@@]2(O)[C@H]3Cc4ccc(O)c5c4[C@@]2(CCN3CC2CC2)[C@H]1O5)c1ccoc1`: the figures for the inhibition constant (Ki) (in test [3]; at Mu-type opioid receptor [4]; in test [6]) were 29.4 nM, 8.47 nM and 1980 nM, respectively. For the same compound, the outcome in the test with Mus musculus [1] was Active. The same compound yielded a 50% effective concentration (EC50) on Mu-type opioid receptor [5] of 35 nM.

As for `O=C(Cc1cccs1)N[C@H]1CC[C@@]2(O)[C@H]3Cc4ccc(O)c5c4[C@@]2(CCN3CC2CC2)[C@H]1O5`, the outcome in the test with Mus musculus [1] and with Mus musculus [2] was inactive.

With `O=C(N[C@@H]1CC[C@@]2(O)[C@H]3Cc4ccc(O)c5c4[C@@]2(CCN3CC2CC2)[C@H]1O5)c1ccsc1`, in the test on Mus musculus [1], the result was inactive. The outcome with Mus musculus [2] was Active.

On to `O=C(CCc1ccc[nH]1)N[C@H]1CC[C@@]2(O)[C@H]3Cc4ccc(O)c5c4[C@@]2(CCN3CC2CC2)[C@H]1O5`, for which the Ki in test [3] came out at 0.54 nM; on Mu-type opioid receptor [4] it was 0.58 nM; in test [6], 7.58 nM. In addition, the outcome with Mus musculus [1] and in the test on Mus musculus [2] was inactive. The same compound showed an EC50 on Mu-type opioid receptor [5] of 3.79 nM.

`O=C(Cc1ccsc1)N[C@@H]1CC[C@@]2(O)[C@H]3Cc4ccc(O)c5c4[C@@]2(CCN3CC2CC2)[C@H]1O5`: the Ki in test [3] was 1.31 nM; at Mu-type opioid receptor [4], 0.2 nM; in test [6] it was 36.1 nM. The result in the test on Mus musculus [1] and in the test with Mus musculus [2] was inactive. At Mu-type opioid receptor [5], this compound came in with an EC50 of 3.24 nM.

On to `O=C(CCc1ccoc1)N[C@H]1CC[C@@]2(O)[C@H]3Cc4ccc(O)c5c4[C@@]2(CCN3CC2CC2)[C@H]1O5`, for which the outcome in the test on Mus musculus [1] and with Mus musculus [2] was inactive. The midpoint of the response at Mu-type opioid receptor [5], the EC50, lay at 2.31 nM.

With `O=C(N[C@H]1CC[C@@]2(O)[C@H]3Cc4ccc(O)c5c4[C@@]2(CCN3CC2CC2)[C@H]1O5)c1ccco1`, the results for the Ki (in test [3]; on Mu-type opioid receptor [4]; in test [6]) were 1.97 nM, 0.53 nM and 33.3 nM, respectively. Moreover, the result in the test on Mus musculus [1] and in the test with Mus musculus [2] was inactive. Besides, the EC50 on Mu-type opioid receptor [5] stood at 9.49 nM.

Consider `O=C(N[C@@H]1CC[C@@]2(O)[C@H]3Cc4ccc(O)c5c4[C@@]2(CCN3CC2CC2)[C@H]1O5)c1cc[nH]c1`, for which the Ki in test [3] was determined as 4.51 nM; at Mu-type opioid receptor [4], 0.36 nM; in test [6], 107 nM. Moreover, the result in the test with Mus musculus [1] was Active. The same compound gave a concentration for a half-maximal effect (EC50) at Mu-type opioid receptor [5] of 2.03 nM.

Turning to `O=C(N[C@H]1CC[C@@]2(O)[C@H]3Cc4ccc(O)c5c4[C@@]2(CCN3CC2CC2)[C@H]1O5)c1cc[nH]c1`, the figures for the inhibition constant Ki (in test [3]; on Mu-type opioid receptor [4]; in test [6]) were 2.78 nM, 1.31 nM and 40.4 nM, respectively. Further, the outcome with Mus musculus [1] and in the test on Mus musculus [2] was inactive. This compound had a 50% effective concentration (EC50) at Mu-type opioid receptor [5] of 2.21 nM.

As for `O=C(CCc1ccc[nH]1)N[C@@H]1CC[C@@]2(O)[C@H]3Cc4ccc(O)c5c4[C@@]2(CCN3CC2CC2)[C@H]1O5`, the values for the Ki (in test [3]; at Mu-type opioid receptor [4]; in test [6]) were 1.25 nM, 0.52 nM and 36.7 nM, respectively. The outcome in the test on Mus musculus [1] was Active. On Mu-type opioid receptor [5], the concentration for a half-maximal effect (EC50) was determined as 1.22 nM.

For `O=C(Cc1cccs1)N[C@@H]1CC[C@@]2(O)[C@H]3Cc4ccc(O)c5c4[C@@]2(CCN3CC2CC2)[C@H]1O5`, the outcome with Mus musculus [1] and in the test with Mus musculus [2] was inactive. This compound displayed a Ki in test [6] of 64.9 nM.

Consider `O=C(CCc1cc[nH]c1)N[C@@H]1CC[C@@]2(O)[C@H]3Cc4ccc(O)c5c4[C@@]2(CCN3CC2CC2)[C@H]1O5`, for which the inhibition constant (Ki) in test [3] was found to be 2.72 nM; on Mu-type opioid receptor [4] it was 0.41 nM; in test [6], 67.5 nM. Besides, the outcome in the test on Mus musculus [1] and in the test with Mus musculus [2] was inactive. At Mu-type opioid receptor [5], this compound registered a 50% effective concentration (EC50) of 1.6 nM.

For `O=C(Cc1cc[nH]c1)N[C@H]1CC[C@@]2(O)[C@H]3Cc4ccc(O)c5c4[C@@]2(CCN3CC2CC2)[C@H]1O5`, the values for the Ki (in test [3]; at Mu-type opioid receptor [4]; in test [6]) were 19 nM, 3.62 nM and 14.4 nM, respectively. Also, the result in the test with Mus musculus [1] and in the test with Mus musculus [2] was inactive. The same compound showed an EC50 at Mu-type opioid receptor [5] of 51.4 nM.

Consider `O=C(CCc1ccco1)N[C@@H]1CC[C@@]2(O)[C@H]3Cc4ccc(O)c5c4[C@@]2(CCN3CC2CC2)[C@H]1O5`, for which the result in the test with Mus musculus [1] and with Mus musculus [2] was inactive.

In the case of `O=C(CCc1cccs1)N[C@@H]1CC[C@@]2(O)[C@H]3Cc4ccc(O)c5c4[C@@]2(CCN3CC2CC2)[C@H]1O5`, in the test with Mus musculus [1], the result was Active.

For `O=C(N[C@@H]1CC[C@@]2(O)[C@H]3Cc4ccc(O)c5c4[C@@]2(CCN3CC2CC2)[C@H]1O5)c1ccc[nH]1`, the result in the test on Mus musculus [1] and in the test with Mus musculus [2] was inactive.

Turning to `O=C(CCc1ccco1)N[C@H]1CC[C@@]2(O)[C@H]3Cc4ccc(O)c5c4[C@@]2(CCN3CC2CC2)[C@H]1O5`, the result in the test on Mus musculus [1] and with Mus musculus [2] was inactive.

Consider `O=C(Cc1ccc[nH]1)N[C@@H]1CC[C@@]2(O)[C@H]3Cc4ccc(O)c5c4[C@@]2(CCN3CC2CC2)[C@H]1O5`, for which the results for the Ki (in test [3]; at Mu-type opioid receptor [4]; in test [6]) were 1.35 nM, 0.16 nM and 24.3 nM, respectively. In the test with Mus musculus [1], the outcome was Active. At Mu-type opioid receptor [5], the midpoint of the response, the EC50, lay at 0.8 nM.

For `O=C(CCc1ccsc1)N[C@H]1CC[C@@]2(O)[C@H]3Cc4ccc(O)c5c4[C@@]2(CCN3CC2CC2)[C@H]1O5`, the result with Mus musculus [1] and in the test with Mus musculus [2] was inactive.

Consider `O=C(N[C@H]1CC[C@@]2(O)[C@H]3Cc4ccc(O)c5c4[C@@]2(CCN3CC2CC2)[C@H]1O5)c1ccc[nH]1`, for which the result with Mus musculus [1] was inactive. Also, the result in the test with Mus musculus [2] was Active.

As for `O=C(CCc1ccsc1)N[C@@H]1CC[C@@]2(O)[C@H]3Cc4ccc(O)c5c4[C@@]2(CCN3CC2CC2)[C@H]1O5`, the outcome with Mus musculus [1] was Active.

Take `O=C(CCc1ccoc1)N[C@@H]1CC[C@@]2(O)[C@H]3Cc4ccc(O)c5c4[C@@]2(CCN3CC2CC2)[C@H]1O5`: the result in the test on Mus musculus [1] and with Mus musculus [2] was inactive. In addition, at Mu-type opioid receptor [5], the concentration for a half-maximal effect (EC50) is 0.63 nM.

The Ki is the dissociation constant of the complex between target and ligand, obtained from inhibition or displacement. A high value points to weaker binding. As usually defined, the EC50 is the concentration needed to bring the measured effect to its halfway point. Higher therefore signals a need for much substance.
